# Measurements: patent publication US6737383B1, “Herbicidal oxadiazolidines” (priority 1999, dated 2004)
# Legend:
# bedstraw = assay: Test B pre/postemergence bedstraw; type: in vivo, Galium aparine
# Method in brief: (§1)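 Test chemicals in a non-phytotoxic solvent mixture with surfactant were sprayed preemergence onto planted seeds and postemergence onto plants 2 to 18 cm tall (1- to 4-leaf stage). After twelve to sixteen days in a greenhouse, injury was visually rated against untreated controls from 0 (no effect) to 10 (complete control).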
# soybean = assay: Test B pre/postemergence soybean; type: in vivo, Glycine max
# Method in brief: as §1
# corn = assay: Test B pre/postemergence corn; type: in vivo, Zea mays
# Method in brief: as §1
# velvetleaf = assay: Test B pre/postemergence velvetleaf; type: in vivo, Abutilon theophrasti
# Method in brief: as §1
# pigweed = assay: Test B pre/postemergence pigweed; type: in vivo, Amaranthus retroflexus
# Method in brief: as §1
# cocklebur = assay: Test B pre/postemergence cocklebur; type: in vivo, Xanthium strumarium
# Method in brief: as §1
# morningglory = assay: Test B pre/postemergence morningglory; type: in vivo, Ipomoea hederacea
# Method in brief: as §1
# purple nutsedge = assay: Test B pre/postemergence purple nutsedge; type: in vivo, Cyperus rotundus
# Method in brief: as §1
# rape = assay: Test B pre/postemergence rape; type: in vivo, Brassica napus
# Method in brief: as §1
# giant foxtail = assay: Test B pre/postemergence giant foxtail; type: in vivo, Setaria faberii
# Method in brief: as §1
# duck salad = assay: Test B flood test duck salad; type: in vivo, Heteranthera limosa; conditions: for Plant response rating, Ducksalad (0 to 10 scale, 0 is no effect, 10 is complete control): Rate 62 g/ha, Pre-emergence; for Plant response rating, Ducksalad (0 to 10 scale, 0 is no effect, 10 is complete control) / Ducksalad plant response rating (0 to 10 scale, 0 is no effect, 10 is complete control): flood test species, visual evaluation after twelve to sixteen days; for Ducksalad plant response rating (0 to 10 scale, 0 is no effect, 10 is complete control): Rate 125 g/ha, under heading Pre-emergence
# Method in brief: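 Each value is a visual injury score relative to controls, with 10 meaning complete control and 0 no effect. Evaluation took place twelve to sixteen days after the 2-leaf-stage plants were treated and kept in the greenhouse.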
# crabgrass = assay: Test B pre/postemergence crabgrass; type: in vivo, Digitaria sanguinalis
# Method in brief: as §1
# surinam grass = assay: Test B pre/postemergence surinam grass; type: in vivo, Brachiaria decumbens
# Method in brief: as §1
# wheat = assay: Test B pre/postemergence wheat; type: in vivo, Triticum aestivum
# Method in brief: as §1
# sugar beet = assay: Test B pre/postemergence sugar beet; type: in vivo, Beta vulgaris
# Method in brief: as §1
# [1] = Preemergence, Rate 62 g/ha, scale 0 to 10 (0 no effect, 10 complete control)
# [2] = Preemergence, Rate 125 g/ha, scale of 0 to 10 where 0 is no effect and 10 is complete control
# [3] = Preemergence, Rate 250 g/ha, scale 0 to 10 (0 no effect, 10 complete control)
# [4] = Preemergence, Rate 500 g/ha, scale of 0 to 10 where 0 is no effect and 10 is complete control
# [5] = Postemergence, Rate 62 g/ha, scale 0 to 10, 0 is no effect, 10 is complete control
# [6] = Postemergence, Rate 125 g/ha, scale of 0 to 10 where 0 is no effect and 10 is complete control
# [7] = Postemergence, Rate 250 g/ha, scale of 0 to 10, 0 is no effect, 10 is complete control
# [8] = Postemergence, Rate 500 g/ha, scale of 0 to 10 where 0 is no effect and 10 is complete control
# [9] = Rate 250 g/ha, Pre-emergence (flood test species), scale 0 to 10, 0 is no effect, 10 is complete control
# [10] = Rate 500 g/ha, Pre-emergence section of Table B, 0 to 10 scale (0 no effect, 10 complete control)
compound,measurement,setting,value
COCCn1c(=O)on(C(=O)N(c2ccc(F)cc2)C(C)C)c1=O [Compound 627],Bedstraw plant response rating,bedstraw; [1],2
same,Bedstraw plant response rating,bedstraw; [2],2
same,"Plant response rating, Bedstraw",bedstraw; [3],8
same,"Plant response rating, Bedstraw",bedstraw; [4],8
same,"Plant response rating, Soybean",soybean; [5],2
same,"Plant response rating, Soybean",soybean; [6],4
same,Soybean plant response rating,soybean; [7],4
same,Soybean plant response rating,soybean; [1],0
same,Soybean plant response rating,soybean; [2],0
same,"Plant response rating, Soybean",soybean; [3],0
same,"Plant response rating, Soybean",soybean; [4],5
same,"Plant response rating, Corn",corn; [5],0
same,"Plant response rating, Corn",corn; [6],3
same,Corn plant response rating,corn; [7],7
same,"Plant response rating, Corn",corn; [8],8
same,Corn plant response rating,corn; [1],3
same,Corn plant response rating,corn; [2],4
same,"Plant response rating, Corn",corn; [3],6
same,"Plant response rating, Corn",corn; [4],9
same,"Plant response rating, Velvetleaf",velvetleaf; [5],3
same,"Plant response rating, Velvetleaf",velvetleaf; [6],4
same,Velvetleaf plant response rating,velvetleaf; [7],8
same,Velvetleaf plant response rating,velvetleaf; [1],7
same,Velvetleaf plant response rating,velvetleaf; [2],8
same,"Plant response rating, Velvetleaf",velvetleaf; [3],10
same,"Plant response rating, Velvetleaf",velvetleaf; [4],10
same,"Plant response rating, Redroot pigweed",pigweed; [5],2
same,"Plant response rating, Redroot pigweed",pigweed; [6],3
same,Redroot pigweed plant response rating,pigweed; [7],6
same,Redroot pigweed plant response rating,pigweed; [1],9
same,Redroot pigweed plant response rating,pigweed; [2],9
same,"Plant response rating, Redroot pigweed",pigweed; [3],10
same,"Plant response rating, Redroot pigweed",pigweed; [4],10
same,"Plant response rating, Cocklebur",cocklebur; [5],0
same,"Plant response rating, Cocklebur",cocklebur; [6],0
same,Cocklebur plant response rating,cocklebur; [7],0
same,"Plant response rating, Cocklebur",cocklebur; [8],3
same,Cocklebur plant response rating,cocklebur; [1],6
same,Cocklebur plant response rating,cocklebur; [2],6
same,"Plant response rating, Cocklebur",cocklebur; [3],6
same,"Plant response rating, Cocklebur",cocklebur; [4],7
same,"Plant response rating, Morningglory",morningglory; [5],3
same,"Plant response rating, Morningglory",morningglory; [6],6
same,Morningglory plant response rating,morningglory; [7],6
same,"Plant response rating, Morningglory",morningglory; [8],6
same,Morningglory plant response rating,morningglory; [1],6
same,Morningglory plant response rating,morningglory; [2],6
same,"Plant response rating, Morningglory",morningglory; [3],6
same,"Plant response rating, Morningglory",morningglory; [4],8
same,"Plant response rating, Nutsedge",purple nutsedge; [5],3
same,Nutsedge plant response rating,purple nutsedge; [7],6
same,Nutsedge plant response rating,purple nutsedge; [1],7
same,Nutsedge plant response rating,purple nutsedge; [2],7
same,"Plant response rating, Nutsedge",purple nutsedge; [3],7
same,"Plant response rating, Nutsedge",purple nutsedge; [4],10
same,"Plant response rating, Rape",rape; [5],0
same,"Plant response rating, Rape",rape; [6],0
same,Rape plant response rating,rape; [7],0
same,"Plant response rating, Rape",rape; [8],5
same,Rape plant response rating,rape; [1],1
same,Rape plant response rating,rape; [2],3
same,"Plant response rating, Rape",rape; [3],9
same,"Plant response rating, Rape",rape; [4],10
same,"Plant response rating, Giant foxtail",giant foxtail; [5],9
same,Giant foxtail plant response rating,giant foxtail; [7],9
same,"Plant response rating, Giant foxtail",giant foxtail; [8],9
same,Giant foxtail plant response rating,giant foxtail; [1],9
same,Giant foxtail plant response rating,giant foxtail; [2],10
same,"Plant response rating, Giant foxtail",giant foxtail; [3],10
same,"Plant response rating, Giant foxtail",giant foxtail; [4],10
same,"Plant response rating, Ducksalad (0 to 10 scale, 0 is no effect, 10 is complete control)",duck salad,0
same,"Ducksalad plant response rating (0 to 10 scale, 0 is no effect, 10 is complete control)",duck salad,0
same,Ducksalad plant response rating,duck salad; [9],0
same,Ducksalad plant response rating,duck salad; [10],1
same,"Plant response rating, Crabgrass",crabgrass; [5],8
same,"Plant response rating, Crabgrass",crabgrass; [6],8
same,Crabgrass plant response rating,crabgrass; [7],9
same,"Plant response rating, Crabgrass",crabgrass; [8],9
same,Crabgrass plant response rating,crabgrass; [1],7
same,Crabgrass plant response rating,crabgrass; [2],8
same,"Plant response rating, Crabgrass",crabgrass; [3],9
same,"Plant response rating, Crabgrass",crabgrass; [4],9
same,"Plant response rating, B. signalgrass",surinam grass; [5],3
same,"Plant response rating, B. signalgrass",surinam grass; [6],7
same,B. signalgrass plant response rating,surinam grass; [7],7
same,"Plant response rating, B. signalgrass",surinam grass; [8],8
same,B. signalgrass plant response rating,surinam grass; [1],5
same,B. signalgrass plant response rating,surinam grass; [2],5
same,"Plant response rating, B. signalgrass",surinam grass; [3],8
same,"Plant response rating, B. signalgrass",surinam grass; [4],9
same,"Plant response rating, Wheat",wheat; [5],2
same,"Plant response rating, Wheat",wheat; [6],3
same,Wheat plant response rating,wheat; [7],6
same,Wheat plant response rating,wheat; [1],0
same,Wheat plant response rating,wheat; [2],0
same,"Plant response rating, Wheat",wheat; [3],7
same,"Plant response rating, Wheat",wheat; [4],5
same,"Plant response rating, Sugarbeets",sugar beet; [5],0
same,"Plant response rating, Sugarbeets",sugar beet; [6],0
same,Sugarbeets plant response rating,sugar beet; [7],0
same,Sugarbeets plant response rating,sugar beet; [1],5
same,Sugarbeets plant response rating,sugar beet; [2],4
same,"Plant response rating, Sugarbeets",sugar beet; [3],8
same,"Plant response rating, Sugarbeets",sugar beet; [4],9
COCCn1c(=O)on(C(=O)N(c2ccc(F)cc2F)C(C)C)c1=O [Compound 628],"Plant response rating, Bedstraw",bedstraw; [5],0
same,Bedstraw plant response rating,bedstraw; [1],6
same,Bedstraw plant response rating,bedstraw; [2],7
same,"Plant response rating, Bedstraw",bedstraw; [3],10
same,"Plant response rating, Bedstraw",bedstraw; [4],10
same,"Plant response rating, Soybean",soybean; [5],4
same,Soybean plant response rating,soybean; [1],0
same,Soybean plant response rating,soybean; [2],0
same,"Plant response rating, Soybean",soybean; [3],4
same,"Plant response rating, Soybean",soybean; [4],7
same,"Plant response rating, Corn",corn; [5],0
same,"Plant response rating, Corn",corn; [6],6
same,Corn plant response rating,corn; [7],7
same,"Plant response rating, Corn",corn; [8],7
same,Corn plant response rating,corn; [1],3
same,Corn plant response rating,corn; [2],6
same,"Plant response rating, Corn",corn; [3],7
same,"Plant response rating, Corn",corn; [4],9
same,"Plant response rating, Velvetleaf",velvetleaf; [5],6
same,"Plant response rating, Velvetleaf",velvetleaf; [6],6
same,Velvetleaf plant response rating,velvetleaf; [7],8
same,Velvetleaf plant response rating,velvetleaf; [1],7
same,"Plant response rating, Velvetleaf",velvetleaf; [3],9
same,"Plant response rating, Velvetleaf",velvetleaf; [4],10
same,"Plant response rating, Redroot pigweed",pigweed; [5],3
same,"Plant response rating, Redroot pigweed",pigweed; [6],3
same,Redroot pigweed plant response rating,pigweed; [7],7
same,Redroot pigweed plant response rating,pigweed; [1],8
same,Redroot pigweed plant response rating,pigweed; [2],9
same,"Plant response rating, Redroot pigweed",pigweed; [3],9
same,"Plant response rating, Redroot pigweed",pigweed; [4],10
same,"Plant response rating, Cocklebur",cocklebur; [5],0
same,"Plant response rating, Cocklebur",cocklebur; [6],1
same,Cocklebur plant response rating,cocklebur; [7],6
same,"Plant response rating, Cocklebur",cocklebur; [8],7
same,Cocklebur plant response rating,cocklebur; [1],2
same,Cocklebur plant response rating,cocklebur; [2],3
same,"Plant response rating, Cocklebur",cocklebur; [3],4
same,"Plant response rating, Cocklebur",cocklebur; [4],7
same,"Plant response rating, Morningglory",morningglory; [5],1
same,"Plant response rating, Morningglory",morningglory; [6],2
same,Morningglory plant response rating,morningglory; [7],2
same,"Plant response rating, Morningglory",morningglory; [8],2
same,Morningglory plant response rating,morningglory; [1],5
same,Morningglory plant response rating,morningglory; [2],5
same,"Plant response rating, Morningglory",morningglory; [3],5
same,"Plant response rating, Morningglory",morningglory; [4],7
same,"Plant response rating, Nutsedge",purple nutsedge; [5],0
same,Nutsedge plant response rating,purple nutsedge; [1],3
same,Nutsedge plant response rating,purple nutsedge; [2],6
same,"Plant response rating, Nutsedge",purple nutsedge; [3],6
same,"Plant response rating, Nutsedge",purple nutsedge; [4],9
same,"Plant response rating, Rape",rape; [5],0
same,"Plant response rating, Rape",rape; [6],0
same,Rape plant response rating,rape; [7],3
same,"Plant response rating, Rape",rape; [8],6
same,Rape plant response rating,rape; [1],0
same,Rape plant response rating,rape; [2],2
same,"Plant response rating, Rape",rape; [3],4
same,"Plant response rating, Rape",rape; [4],9
same,"Plant response rating, Giant foxtail",giant foxtail; [5],8
same,"Plant response rating, Giant foxtail",giant foxtail; [6],9
same,Giant foxtail plant response rating,giant foxtail; [7],9
same,"Plant response rating, Giant foxtail",giant foxtail; [8],9
same,Giant foxtail plant response rating,giant foxtail; [1],10
same,Giant foxtail plant response rating,giant foxtail; [2],10
same,"Plant response rating, Giant foxtail",giant foxtail; [3],10
same,"Plant response rating, Giant foxtail",giant foxtail; [4],10
same,"Plant response rating, Ducksalad (0 to 10 scale, 0 is no effect, 10 is complete control)",duck salad,0
same,"Ducksalad plant response rating (0 to 10 scale, 0 is no effect, 10 is complete control)",duck salad,0
same,Ducksalad plant response rating,duck salad; [9],0
same,Ducksalad plant response rating,duck salad; [10],0
same,"Plant response rating, Crabgrass",crabgrass; [5],8
same,Crabgrass plant response rating,crabgrass; [7],9
same,"Plant response rating, Crabgrass",crabgrass; [8],9
same,Crabgrass plant response rating,crabgrass; [1],8
same,Crabgrass plant response rating,crabgrass; [2],8
same,"Plant response rating, Crabgrass",crabgrass; [3],9
same,"Plant response rating, Crabgrass",crabgrass; [4],10
same,"Plant response rating, B. signalgrass",surinam grass; [5],2
same,"Plant response rating, B. signalgrass",surinam grass; [6],8
same,B. signalgrass plant response rating,surinam grass; [7],8
same,"Plant response rating, B. signalgrass",surinam grass; [8],8
same,B. signalgrass plant response rating,surinam grass; [1],3
same,B. signalgrass plant response rating,surinam grass; [2],7
same,"Plant response rating, B. signalgrass",surinam grass; [3],8
same,"Plant response rating, B. signalgrass",surinam grass; [4],10
same,"Plant response rating, Wheat",wheat; [5],0
same,"Plant response rating, Wheat",wheat; [6],4
same,Wheat plant response rating,wheat; [7],7
same,Wheat plant response rating,wheat; [1],3
same,Wheat plant response rating,wheat; [2],3
same,"Plant response rating, Wheat",wheat; [3],7
same,"Plant response rating, Wheat",wheat; [4],10
same,"Plant response rating, Sugarbeets",sugar beet; [5],0
same,"Plant response rating, Sugarbeets",sugar beet; [6],0
same,Sugarbeets plant response rating,sugar beet; [7],3
same,Sugarbeets plant response rating,sugar beet; [1],3
same,Sugarbeets plant response rating,sugar beet; [2],4
same,"Plant response rating, Sugarbeets",sugar beet; [3],7
same,"Plant response rating, Sugarbeets",sugar beet; [4],7
